# Experimental data reported in PMC8776337, “Peptides Derived from Vascular Endothelial Growth Factor B Show Potent Binding to Neuropilin‐1” (Chembiochem, 2021).
# Where two headings read alike, the source gives them in different places. Positions of bridges follow the written chain, without caps; N, C: chain ends. Residues, ends and D or L forms follow the SMILES beside them. *: point of attachment. Palmitoyl = CCCCCCCCCCCCCCCC(=O)*; Hept6ynoyl = C#CCCCCC(=O)*
# Tests used:
# [1] = biological target: T1, NRP1‐b1 (Homo sapiens, UniProt O14786); assay: SPR binding of peptides to immobilised NRP1-b1; details: for Receptor occupancy: immobilised NRP1-b1
# T1 construct: the immobilized b1 domain of NRP1 (NRP1‐b1); poly-histidine (TEV-cleavable) (cleaved yes); made in house; host or cells: E. coli Rosetta (DE3)
# T1 sequence (O14786 275-424 limits assumed): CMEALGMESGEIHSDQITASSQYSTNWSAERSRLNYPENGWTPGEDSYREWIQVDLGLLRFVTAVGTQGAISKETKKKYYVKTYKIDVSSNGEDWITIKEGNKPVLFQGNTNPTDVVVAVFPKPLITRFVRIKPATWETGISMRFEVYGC
# From the text: We then designed four additional peptides with added lipid chains (Figures 3 and 4). We investigated the effect of lipidation on the N‐terminus (MGC0171 and MGC0174) and on the side chain of a lysine in close proximity to the C‐terminus (MGC0172 and MGC0173) as shown (Figure 5). For the SPR analysis of the lipidated peptides we fitted data to a two‐state reaction model to account for the nonspecific binding of the palmitoyl side chains. Since the model assumes two binding events it provides two association (k a) and dissociation (k d) rates, and the overall equilibrium dissociation constant is calculated using the equation: KD=KD1(1+KD2), in which KD1 and KD2 are obtained as […]. The inverse of the dissociation rate corresponds to the residence time. […] The lipidated peptides were also tested for inhibition of VEGF‐A165 binding to NRP1 in a cell‐based assay (Figure 8).
# Surface plasmon resonance: SPR measurements were performed using either Biacore T200 or Biacore 4000 at a constant temperature of 25 °C. All sensor chips, stock buffers, and immobilisation reagents were purchased from GE Healthcare/Cytvia and were prepared according to the manufacturer's instructions.
# Chip preparation: PBS containing 0.05 % surfactant P20 was used as the running buffer during immobilisation. Proteins were immobilised onto a CM5 chip using random amine coupling following a standard procedure using the conditions specified in Table 2. A flow cell upstream of the treated flow cell was used as a reference which allowed removal of non‐specific binding to the chip.
# Kinetic measurements of peptides: Peptides were injected over immobilized NRP1‐b1 for 60 s, followed by 120 or 180 s dissociation. The surface was regenerated with 1 M NaCl between injections. The SPR response curves were fit to a binding model to obtain association (ka ) and dissociation (kd ) rates which were then converted into equilibrium dissociation constant (KD ) and residence time. For a 1 : 1 binding model […] and for a two‐state binding model KD=K1(1+K2). Residence time was calculated as 1/kd .
# [2] = system: VEGF‐A165 stimulated phosphorylation in HUVECs; assay: Western blot of VEGF-A-stimulated phosphorylation of downstream signalling proteins in HUVECs; format: cell-based, human; details: HUVECs pre-treated 30 min with 10 μM peptide, then VEGF-A165 10 min
# Experimental: Figure 7 Effect of VEGF ‐ derived peptides on VEGF‐A ‐stimulated phosphorylation of downstream signalling proteins as probed by Western blot. A) VEGF‐B167 derived peptide MGC0123. B) VEGF‐A165 derived peptide MGC0124. HUVECs were pre‐treated for 30 min with peptide (10 μM) then stimulated for 10 minutes with VEGF‐A165.
# Cell culture: Human umbilical vein endothelial cells (HUVECs) were cultured in t75 cm2 flasks for a maximum of 2 passages in EGM Endothelial Cell Growth Medium (#CC‐3124, Lonza, USA) supplemented with 10 % FBS. Cells were split into 6‐well‐plates and allowed to grow to ∼80 % confluence. Cells were starved by incubating in 0.5 % FBS serum EGM overnight and serum‐free EGM for 1 h directly before stimulation. Human DU145 cells for the cell‐based assay (see below) were cultured in t75 cm2 flasks in DMEM supplemented with 10 % FBS.
# Immunoblotting: Cells were pre‐treated with the indicated peptide (10 μM) for 30 minutes prior to treatment with VEGF‐A165 at the indicated concentrations for 10 minutes. Cells were lysed in a solution containing Tris⋅HCl (pH 7.5, 50 mm), Triton X‐100 (1 %), NaCl (150 mm), EDTA (5 mm), complete protease inhibitor (Roche) and phosphatase inhibitors I and II (Sigma) and analysed by SDS‐PAGE with 4–12 % Bis⋅Tris gels (Nupage, Invitrogen), followed by electrotransfer onto Invitrolon PVDF membranes (Invitrogen). Membranes were blocked with non‐fat dry milk (5 % w/v) and Tween‐20 (0.1 % v/v) in tris‐buffered saline (TBS‐T), for 1 h at room temperature, before being probed with the primary antibody by overnight incubation at 4 degrees C, followed by incubation for 1 h at room temperature with a horseradish‐ peroxidase‐linked secondary antibody (Santa Cruz) and detection with the aid of ECL plus reagents (GE Healthcare, Little Chalfont, UK), by the manufacturer's protocol.
# [3] = biological target: T2, bt‐VEGF‐A165 binding to NRP1 in HUVEC cells (Homo sapiens, UniProt O14786); assay: Cell based binding assay, inhibition of bt-VEGF-A165 binding to NRP1; details: bt-VEGF-A165 4 nM
# T2 construct: expressed in transfected cells
# Experimental: A) N‐terminal palmitoyl VEGF‐B167 derived peptide MGC0174. B) Lysine palmitoyl peptide MGC0173. C) N‐terminal palmitoyl VEGF‐A165 derived peptide MGC0171. D) Lysine VEGF‐A165 palmitoyl peptide MGC0172.
# Cell based binding assay for bt‐VEGF binding to NRP1‐b1: A flat‐bottomed 96 well plate was coated with 100 μL 10 μg/mL Poly‐D‐lysine (110 μL in 10890 μL PBS) and incubated for 1 hour at R.T. DU145 cells were seeded at a concentration of 20,000 DU145 cells/well in DMEM with 10 % FBS and incubated for 4 hours. Cells were then infected with 0.3 μL per well of adenovirus expressing NRP1 (stock at 1×1012 vp/mL) and incubated for 40 hours. The media was removed followed by washing cells twice in 200 μL of PBS per well. The plate was placed on ice and 50 μL of binding medium was added per well for total binding. Next, 50 μL of 100‐fold excess (100×btVEGF‐A165) of unlabelled‐VEGF (diluted in binding medium) was added per well for non‐specific binding. Peptides (50 μL) at the indicated concentrations were diluted in binding medium and added to specified wells. bt‐VEGF (50 μL of 4 nM; diluted in binding medium) was added per well for both total and non‐specific binding and samples. The plate was incubated at 4 °C for 2 hours. The plate was then placed on ice and the medium was removed followed by gently washing the cells 3 times in 200 μL of PBS per well.
# Streptavidin‐horseradish peroxidase (100 μL; dilute to the working concentration specified on the vial label using PBS+1 % BSA=1 : 200) was added to each well. The plate was sealed and incubated for 30 minutes at room temperature. Three more washes with 200 μL PBS were done. Then, 100 μL of substrate solution was added to each well (protected from light). Colour Reagent A and B were mixed together in equal volumes within 15 minutes of use. The plate was sealed and incubated for 20 minutes at room temperature. Stop solution (50 μL) was added to each well ensuring even mixing. The plate was read using Tecan Genios plate reader using a 450 nm cut‐off filter and also with a reference 595 nm cut‐off filter. Nonspecific binding was determined in the absence of NP‐1 coated on the microplate.
# [4] = SPR, immobilised NRP1-b1, 25 °C, 1:1 model, or first residence time of the two-state model, read-out: Residence time (1/kd) (converted)
# T2 sequence (O14786 22-923): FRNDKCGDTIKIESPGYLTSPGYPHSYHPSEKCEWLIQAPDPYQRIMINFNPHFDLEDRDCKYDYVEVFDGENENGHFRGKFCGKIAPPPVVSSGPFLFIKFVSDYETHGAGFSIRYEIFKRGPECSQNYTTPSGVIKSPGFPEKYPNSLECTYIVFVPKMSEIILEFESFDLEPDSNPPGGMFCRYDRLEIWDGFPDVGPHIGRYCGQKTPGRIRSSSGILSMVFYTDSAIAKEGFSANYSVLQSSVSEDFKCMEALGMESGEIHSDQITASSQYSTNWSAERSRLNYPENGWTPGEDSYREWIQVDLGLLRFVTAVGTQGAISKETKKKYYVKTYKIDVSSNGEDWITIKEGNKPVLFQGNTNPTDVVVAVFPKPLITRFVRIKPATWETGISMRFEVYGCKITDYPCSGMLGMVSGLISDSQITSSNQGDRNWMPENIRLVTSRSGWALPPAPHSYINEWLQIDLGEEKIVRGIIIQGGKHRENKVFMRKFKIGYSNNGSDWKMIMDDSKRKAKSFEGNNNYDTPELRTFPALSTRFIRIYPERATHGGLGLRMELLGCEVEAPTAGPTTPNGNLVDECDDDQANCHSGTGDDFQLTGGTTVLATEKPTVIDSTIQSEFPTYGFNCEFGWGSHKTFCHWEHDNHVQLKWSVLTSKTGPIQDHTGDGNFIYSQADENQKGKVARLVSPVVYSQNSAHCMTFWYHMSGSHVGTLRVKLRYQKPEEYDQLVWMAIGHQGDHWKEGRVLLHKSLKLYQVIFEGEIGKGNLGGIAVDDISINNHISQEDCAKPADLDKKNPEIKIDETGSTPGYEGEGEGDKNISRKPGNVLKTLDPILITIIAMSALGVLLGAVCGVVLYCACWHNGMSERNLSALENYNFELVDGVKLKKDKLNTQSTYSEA
Compound,"residence time [1, 4]",VEGF‐A165 dependent ERK phosphorylation [2],VEGF‐A165 dependent VEGFR2 phosphorylation [2],VEGF‐A mediated P130Cas phosphorylation [2],VEGF‐A mediated Paxillin phosphorylation [2],Receptor occupancy ([1]; SPR),residence time ([1]; read-out: Residence time (1/kd)),"IC50 ([3]; 4 °C, 2 h, streptavidin-horseradish peroxidase detection, read-out: IC50, cell‐based activity (HUVECs), inhibition of bt‐VEGF‐A165 binding to NRP1)",HS (of the inhibition curve of bt‐VEGF‐A165 binding to NRP1) ([3]; HUVEC cells),"residence time ([1]; SPR, immobilised NRP1-b1, 25 °C, two-state model, lipidated peptides, read-out: Second residence time calculated from two‐state model (converted))","Kd ([1]; SPR, peptide injected 60 s over NRP1-b1 immobilised on CM5 chip, 25 °C, 1:1 model for MGC0122/0123/0124, two-state model for lipidated peptides, read-out: KD, SPR binding to NRP1‐b1)"
C#CCCCCC(=O)N[C@@H](CC(=O)O)C(=O)N[C@@H](CCCNC(=N)N)C(=O)N[C@@H](C)C(=O)N[C@@H](C)C(=O)N[C@H](C(=O)N1CCC[C@H]1C(=O)N[C@@H](Cc1c[nH]cn1)C(=O)N[C@@H](Cc1c[nH]cn1)C(=O)N[C@@H](CCCNC(=N)N)C(=O)N1CCC[C@H]1C(=O)N[C@@H](CCC(N)=O)C(=O)N1CCC[C@H]1C(=O)N[C@@H](CCCNC(=N)N)C(=O)O)[C@@H](C)O [MGC0122] (Hept6ynoyl-DRAATPHHRPQPR-OH),0.0362 min,,,,,,,,,,
"C#CCCCCC(=O)N[C@@H](CCCNC(=N)N)C(=O)N[C@H]1CSSC[C@@H]2NC(=O)[C@H]([C@@H](C)O)NC(=O)[C@H](CC(=O)O)NC(=O)[C@@H]3CCCN3C(=O)[C@H](CC(N)=O)NC(=O)[C@H](CC(C)C)NC(=O)[C@H](CCC(=O)O)NC(=O)[C@H](CC(C)C)NC(=O)CNC(=O)[C@H](CCCNC(=N)N)NC(=O)CNC(=O)[C@H](CCC(N)=O)NC(=O)[C@H](CSSC[C@@H](C(=O)N[C@@H](CCCNC(=N)N)C(=O)N[C@@H](CCCCN)C(=O)N[C@@H](CC(C)C)C(=O)N[C@@H](CCCNC(=N)N)C(=O)N[C@@H](CCCNC(=N)N)C(=O)O)NC(=O)[C@H](CCCNC(=N)N)NC2=O)NC(=O)[C@H](CCCNC(=N)N)NC(=O)[C@H](CC(C)C)NC(=O)[C@H](Cc2ccccc2)NC(=O)[C@H](CO)NC(=O)[C@H](CCCNC(=N)N)NC(=O)[C@H](CCCNC(=N)N)NC(=O)[C@H](CCCNC(=N)N)NC1=O [MGC0123] (Hept6ynoyl-RCRRRSFLRCQGRGLELNPDTCRCRKLRR-OH; disulfide 2-22, 10-24)",,dramatically inhibited,dramatically inhibited,also inhibited,also inhibited,54±3%,0.308 min,,,,
"C#CCCCCC(=O)N[C@@H](CO)C(=O)N[C@H]1CSSC[C@@H]2NC(=O)[C@H]([C@@H](C)O)NC(=O)[C@H](CCCNC(=N)N)NC(=O)[C@H](CCC(=O)O)NC(=O)[C@H](CC(N)=O)NC(=O)[C@H](CC(C)C)NC(=O)[C@H](CCC(=O)O)NC(=O)[C@H](CC(C)C)NC(=O)[C@H](CCC(N)=O)NC(=O)[C@H](CCCNC(=N)N)NC(=O)[C@H](C)NC(=O)[C@H](CCCCN)NC(=O)[C@H](CSSC[C@@H](C(=O)N[C@@H](CC(=O)O)C(=O)N[C@@H](CCCCN)C(=O)N3CCC[C@H]3C(=O)N[C@@H](CCCNC(=N)N)C(=O)N[C@@H](CCCNC(=N)N)C(=O)O)NC(=O)[C@H](CCCNC(=N)N)NC2=O)NC(=O)[C@H](CCCNC(=N)N)NC(=O)[C@H](CO)NC(=O)[C@H](CC(=O)O)NC(=O)[C@H]([C@@H](C)O)NC(=O)[C@H](CC(N)=O)NC(=O)[C@H](CCCCN)NC1=O [MGC0124] (Hept6ynoyl-SCKNTDSRCKARQLELNERTCRCDKPRR-OH; disulfide 2-21, 9-23)",0.0117 min,little effect,strongly reducing,little effect,little effect,84±1%,,,,,
"CCCCCCCCCCCCCCCC(=O)N[C@@H](CO)C(=O)N[C@H]1CSSC[C@@H]2NC(=O)[C@H]([C@@H](C)O)NC(=O)[C@H](CCCNC(=N)N)NC(=O)[C@H](CCC(=O)O)NC(=O)[C@H](CC(N)=O)NC(=O)[C@H](CC(C)C)NC(=O)[C@H](CCC(=O)O)NC(=O)[C@H](CC(C)C)NC(=O)[C@H](CCC(N)=O)NC(=O)[C@H](CCCNC(=N)N)NC(=O)[C@H](C)NC(=O)[C@H](CCCCN)NC(=O)[C@H](CSSC[C@@H](C(=O)N[C@@H](CC(=O)O)C(=O)N[C@@H](CCCCN)C(=O)N3CCC[C@H]3C(=O)N[C@@H](CCCNC(=N)N)C(=O)N[C@@H](CCCNC(=N)N)C(=O)O)NC(=O)[C@H](CCCNC(=N)N)NC2=O)NC(=O)[C@H](CCCNC(=N)N)NC(=O)[C@H](CO)NC(=O)[C@H](CC(=O)O)NC(=O)[C@H]([C@@H](C)O)NC(=O)[C@H](CC(N)=O)NC(=O)[C@H](CCCCN)NC1=O [MGC0171] (Palmitoyl-SCKNTDSRCKARQLELNERTCRCDKPRR-OH; disulfide 2-21, 9-23)",0.0883 min,,,,,,,1700 nM,1.7,1.58 min,3320 ± 160 nM
